{"source": "patent US20190352262A1", "about": "“New Pleuromutilin Antibiotic Compounds, Compositions and Methods of Use and Synthesis” (YALE UNIVERSITY, priority 2017, published 2019)", "origin": "cited, not measured here", "tested_on": "Gram-positive bacteria", "settings": "background statement, no data of the applicant", "note": "“Also recorded” adds a separate entry of the source."}
{"smiles": "C=C[C@]1(C)C[C@@H](OC(=O)CO)[C@@]2(C)C3C(=O)CC[C@@]3(CC[C@H]2C)[C@H](C)C1O", "note": "(single isomer, unassigned; (+)) [(+)-Pleuromutilin, (+)-pleuromutilin]", "values": [{"measurement": "antibacterial activity (growth inhibition of Gram-positive bacteria)", "result": "inhibit the growth"}]}
{"smiles": "C=C[C@]1(C)C[C@@H](O)[C@]2(C)[C@H](C)CC[C@]3(CCC(=O)[C@H]32)[C@@H](C)[C@@H]1O", "note": "[(+)-mutilin]", "values": [{"measurement": "antibacterial activity (growth inhibition of Gram-positive bacteria)", "result": "not active; also recorded: largely inactive"}]}
